Experimental data from patent publication US4808620A, “Pyrazolopyridine compounds, their preparation and use as platelet aggregation inhibitors” (Yoshitomi Pharmaceutical Industries, Ltd., priority 1986, dated 1989).
Values after ≈ are worked out from the molar mass of the structure shown.

Columns and labels:
[1] = system: stretch symptom induced by phenylquinone; assay: Analgesic Activity (phenylquinone-induced stretch symptom, method of Hendershot et al); assay type: in vivo, Male ddY mice; conditions: Mus musculus, po; mice, p.o., 1 h before 0.02% phenylquinone i.p., stretch frequency for 20 min; read-out: ED50, Pharmacological Experiment (1), analgesic activity
Procedure: The experiment was performed according to the method of Hendershot et al described in J. Pharmacol. Exp. Ther., vol. 125, P. 237 (1959). Male ddY mice weighing 18-25 g were used in groups of 6-18. One hour after the oral administration of test compound solution (10 ml/kg), 10 ml/kg of 0.02% aqueous phenylquinone solution was intraperitoneally administered to the animal. The frequency of stretch symptom thus induced measured for 20 minutes. The inhibitory rate was determined in comparison with the control group and the 50% effective dose (ED50, mg/kg) was caluculated according to the linear regression method.

[2] = system: Acute Inflammation (carrageenin); assay: Effect on Acute Inflammation (carrageenin hind paw, method of Winter et al); assay type: in vivo, Male Donryu rats; conditions: Rattus norvegicus, po; rats, p.o., 1 h before 1% carrageenin, foot volume 3 h later; read-out: ED50, Pharmacological Experiment (2), acute inflammation
Procedure: Effect on Acute Inflammation
The experiment was performed according to the method of Winter et al described in Proc. Soc. Exp. Biol. Med., vol. 111, p. 544 (1962). Male Donryu rats weighing about 140 g which was fastened for 18 hours were used in groups of five animals. Test compound solution was orally administered and one hour later, 0.05 ml of saline solution containing 1% carrageenin was injected into the right hind paw. Three hours later, the foot volume was measured by the water displacement method. The rate of increase against the foot volume before the injection of carrageenin was calculated, and the inhibitory rate was determined as compared with the control group. The 50% effective dose (ED50, mg/kg) was determined by the linear regression method.

[3] = system: Chronic Inflammation (adjuvant arthritis); assay: Effect on Chronic Inflammation (adjuvant arthritis, method of Newbould); assay type: in vivo, male Lewis rats; conditions: Rattus norvegicus, po; adjuvant arthritis rats, p.o. once a day from 15th to 24th day, decrease of foot volume vs 15th day; read-out: MED, Pharmacological Experiment (3), chronic inflammation
Procedure: Effect on Chronic Inflammation The experiment was performed by employing 10-week old male Lewis rats according to the method of Newbould described in Brit. J. Pharmacol., vol. 21, p. 127 (1963). Dead tubercle bacilli ([…] H5 type) suspended in liquid paraffin (0.5 mg/0.1 ml) was inoculated as adjuvant into the skin at the base of tail. Animals with arthritis were chosen on the 15th day and divided into groups of seven. Test compound solution (5 ml/kg) was orally administered once a day from 15th day of 24th day consecutively. The rate of change of the foot volume on the 24th day against the foot volume on the 15th day was calculated, and the inhibitory rate was determined as compared with the control group. The minimun effective dose (MED, mg/kg) was obtained based on the dose indicating the decrease of foot volume than the foot volume on the 15th day.

[4] = system: Platelet Aggregation induced by Arachidonic Acid; assay: Effect on the Platelet Aggregation induced by Arachidonic Acid; assay type: cell-based, Male Hartley guinea pigs; conditions: Cavia porcellus, guinea pig PRP, 37° C., arachidonic acid 5×10^-4 M, maximum aggregation value, read-out: IC50, Pharmacological Experiment (4), platelet aggregation
Procedure: Effect on the Platelet Aggregation induced by Arachidonic Acid
Male Hartley guinea pigs weighing 400-500 g were subjected to the abdominal operation under etherization. The citrated blood (9 volumes of blood and one volume of 3.8% sodium citrate solution) was collected from the abdominal aorta. Immediately, the blood was centrifuged at 150×g for 3 minutes to obtained platelet-rich plasma (PRP) as a supernatant. The remaining blood was centrifuged at 1400×g for 10 minutes to obtain platelet-poor plasma (PPP) as a supernatant. The number of platelet in PRP was adjusted to 4-6×10^5 platelets/mm^3 by adding PPP thereto The platelet aggregation was measured by using a platelet aggregometer according to the method of Born et al described in J. Physiol., vol. 168, p. 178 (1963). Test compound solution was added to PRP under stirring at 1500 rpm at 37° C., and two minutes later arachidonic acid (final concentration: 5×10^-4 M) is added thereto. The change of transmittance was recorded consecutively. The transmittance was adjusted to 0 and 100% with PRP and PPP, respectively. The inhibitory rate was calculated against the control group by using the maximum aggregation value as an index, and 50% inhibitory concentration(IC50, μg/ml) was determined by the linear regression method.

IC50 [4] [µg/mL] | SMILES | ED50 [1] [mg/kg] | ED50 [2] [mg/kg] | minimal effective dose [3] [mg/kg]
0.95 (≈ 2.24 µM) | CCC(=O)OCCn1nc(-c2cc(C(C)(C)C)c(O)c(C(C)(C)C)c2)c2cccnc21 [Compound C, 3-(3,5-di-tertiarybutyl-4-hydroxyphenyl)-1-(2"propionyloxyethyl)-1H-pyrazolo [3,4-]pyridine] | 1.1 | 8 | 0.3
0.12 (≈ 0.283 µM) | CCOC(=O)CCn1nc(-c2cc(C(C)(C)C)c(O)c(C(C)(C)C)c2)c2cccnc21 [Compound D, 3-(3,5-di-tertiarybutyl-4-hydroxyphenyl)-1-(2-ethoxycarbonylethyl)-1H-pyrazolo [3,4-b]pyridine] | 0.56 | 8.3 | 1

Continued, compound first:

SMILES | IC50 [4] [µg/mL] | ED50 [1] [mg/kg] | ED50 [2] [mg/kg] | minimal effective dose [3] [mg/kg]
CC(=O)OCCn1nc(-c2cc(C(C)(C)C)c(O)c(C(C)(C)C)c2)c2cccnc21 [Compound E, 1-(acetoxyethyl)-3-(3,5-di-tertiarybutyl-4-hydroxyphenyl)-1H-pyrazolo[3,4-b]pyridine] | 0.9 (≈ 2.2 µM) | 0.35 | 14 | 0.3
CC(C)(C)c1cc(-c2nn(CCO)c3ncccc23)cc(C(C)(C)C)c1O [Compound B, 3-(3,5-di-tertiarybutyl-4-hydroxyphenyl)-1-(2-hydroxyethyl)-1H-pyrazolo [3,4-b]pyridine] | 0.09 (≈ 0.245 µM) | 19 | 44 | 3
Cn1nc(-c2cc(C(C)(C)C)c(O)c(C(C)(C)C)c2)c2cccnc21 [Compound A, 3-(3,5-di-tertiarybutyl-4-hydroxyphenyl)-1-methyl-1H-pyrazolo[3,4-b]pyridine] | 1.05 (≈ 3.11 µM) | 9.5 | 70 | 0.3
